In paper PMC6791878, “Evaluation of integrin αvβ6 cystine knot PET tracers to detect cancer and idiopathic pulmonary fibrosis” (Nature Communications, 2019):
Several values for one entry are separate records, joined by “and”; a condition that tells them apart may be missing. Equal values may be shown once. Read-outs that look alike come from different tables or passages of the source.

Columns and labels:
pancreatic cancer = assay: [18F]FP-R01-MG-F2 vs [18F]FDG PET/CT in a pancreatic cancer patient (Stanford); conditions: one patient
Procedure: The line was flushed with at least 10 ml normal saline after injection. • Blood samples for blood time activity measurements were taken at 1, 3, 5, and 10 min after tracer administration and then at 30-minute intervals for up to 3 h after tracer injection. The counts in whole blood and plasma were measured by gamma counter (Perkin Elmer Wizard 1470). […] The scan was performed over the abdominal region to include the pancreas. Attenuation correction was employed via CT (120 kV, 10 mA). […] The scan was performed over the chest region. Attenuation correction was employed via CT (120 kV, 10 mA). • Static total-body (vertex-to-toe) PET/CT scans were acquired at 60 min and 120 min post injection. CT was performed at 120 kV; it was dose-modulated based on body habitus with current ranging from 10-105 mA for the 60-minute scan. […] EKG data was analyzed to assess changes in overall rhythm of the heart. • On the day of the study, participants were asked to void frequently to reduce radiation exposure. Urine samples were collected at prior to tracer administration (baseline), prior to the static PE scans, at the end of the study day 1, and at the follow up visits 1 day and 7 days after tracer administration.
Upon co-registration of the PET and CT images, the CT images were used to determine regions of interest for the organs or tissues reported in the manuscript. These ROIs were applied to the PET images of the brain, pituitary gland, breast, lower and upper large intestine, small intestine, stomach, pancreas, heart wall, liver, lung, muscle, red marrow, bone, skin, and thyroid gland. For high uptake organs such as the kidneys, bladder and for the whole body, threshold-based segmentation of PET images were used to determine a close-fitting ROI around the entire organ or whole body. In order to determine accuracy, these PET-derived ROIs were compared to the CT overlay for a close match.

cervical cancer = assay: [18F]FDG PET/CT (PUMC Hospital); format: in vivo, human; conditions: second cervical cancer patient
Procedure: All patients were instructed to avoid strenuous work or exercise for at least 24 h prior to the scheduled study date. Study participants were also instructed to fast for at least 4 h before intravenous administration of the PET tracer. Patients were administered [^18F]FDG at a dosage of 5.55 MBq (0.15 mCi) per kilogram body weight. Immediately after tracer administration, patients were allowed to rest and relax in a warm, darkened room for approximately 45–60 min. Next, each patient emptied their bladder. The PET scan that followed spanned a region from the mid-thigh area to the base of the skull (six bed positions, 2 min bed^−1).

human integrin αvβ6 [1] = molecular target: T1, human integrin αvβ6 (Homo sapiens, UniProt P06756+P18564, DEL708-788); assay: Equilibrium binding of yeast-displayed knottins to soluble integrin αvβ6 (two-colour flow cytometry, KD)
T1 construct: purchased R&D Systems

human integrin αvβ6 [2] = molecular target: T1, human integrin αvβ6; parameters: method as in Kimura et al., Clin. Can. Res., 2012; conditions: ref Kimura et al., Clin. Can. Res., 2012; cited from earlier work

T1 sequence (P06756 31-992 limits assumed, stated change not applied): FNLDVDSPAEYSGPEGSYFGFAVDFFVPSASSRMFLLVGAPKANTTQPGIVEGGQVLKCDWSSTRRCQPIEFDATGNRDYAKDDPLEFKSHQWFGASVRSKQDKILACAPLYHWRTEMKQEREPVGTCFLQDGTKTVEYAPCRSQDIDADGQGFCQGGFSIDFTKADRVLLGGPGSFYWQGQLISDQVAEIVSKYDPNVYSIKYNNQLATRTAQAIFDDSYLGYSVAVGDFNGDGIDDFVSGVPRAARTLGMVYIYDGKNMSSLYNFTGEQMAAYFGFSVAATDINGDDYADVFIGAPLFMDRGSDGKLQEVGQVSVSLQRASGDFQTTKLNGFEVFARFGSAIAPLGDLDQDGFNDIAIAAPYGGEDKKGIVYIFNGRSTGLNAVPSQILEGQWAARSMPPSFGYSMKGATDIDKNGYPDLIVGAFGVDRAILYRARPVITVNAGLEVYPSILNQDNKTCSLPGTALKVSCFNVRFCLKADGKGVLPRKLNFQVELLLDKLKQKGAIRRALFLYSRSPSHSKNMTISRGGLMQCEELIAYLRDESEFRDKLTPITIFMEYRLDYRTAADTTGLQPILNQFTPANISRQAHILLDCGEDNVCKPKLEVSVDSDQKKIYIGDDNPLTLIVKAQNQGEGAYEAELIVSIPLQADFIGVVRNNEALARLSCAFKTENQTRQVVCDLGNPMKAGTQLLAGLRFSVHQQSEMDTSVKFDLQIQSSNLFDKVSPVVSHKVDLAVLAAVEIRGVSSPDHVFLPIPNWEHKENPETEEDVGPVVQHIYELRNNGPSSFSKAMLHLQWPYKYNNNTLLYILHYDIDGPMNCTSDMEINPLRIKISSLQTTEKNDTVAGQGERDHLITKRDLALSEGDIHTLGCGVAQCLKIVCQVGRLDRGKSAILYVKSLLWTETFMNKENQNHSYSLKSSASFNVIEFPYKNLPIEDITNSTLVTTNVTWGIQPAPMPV
T1 sequence (P18564 22-707 limits assumed, stated change not applied): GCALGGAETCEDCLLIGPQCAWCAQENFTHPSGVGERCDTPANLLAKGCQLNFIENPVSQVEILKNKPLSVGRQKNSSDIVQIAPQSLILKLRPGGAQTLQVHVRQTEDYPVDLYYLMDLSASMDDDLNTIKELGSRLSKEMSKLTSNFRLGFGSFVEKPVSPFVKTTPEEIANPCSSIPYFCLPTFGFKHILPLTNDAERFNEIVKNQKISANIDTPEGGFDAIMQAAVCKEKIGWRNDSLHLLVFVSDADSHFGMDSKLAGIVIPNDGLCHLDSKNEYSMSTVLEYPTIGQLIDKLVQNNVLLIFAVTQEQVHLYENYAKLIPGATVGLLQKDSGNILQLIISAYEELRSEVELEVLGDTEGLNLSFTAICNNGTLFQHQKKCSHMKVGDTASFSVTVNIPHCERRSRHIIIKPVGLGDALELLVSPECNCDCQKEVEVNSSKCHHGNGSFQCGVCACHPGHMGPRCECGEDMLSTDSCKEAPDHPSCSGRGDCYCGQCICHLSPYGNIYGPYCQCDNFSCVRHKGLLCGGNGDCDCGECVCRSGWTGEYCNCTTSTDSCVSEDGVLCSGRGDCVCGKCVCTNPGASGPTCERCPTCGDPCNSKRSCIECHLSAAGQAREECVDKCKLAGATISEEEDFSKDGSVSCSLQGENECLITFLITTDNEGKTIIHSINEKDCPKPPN

SUVmean, liver (pancreatic cancer; 1 h p.i.)	SUVmean, small intestines (pancreatic cancer; 1 h p.i.)	SUVmean, stomach (pancreatic cancer; 1 h p.i.)	SUVmean, pancreatic tumor (pancreatic cancer; ~1 h p.i.)	SUVmean, cervical tumor (cervical cancer)	SMILES	Kd (human integrin αvβ6 [1]) [nM]	Kd (human integrin αvβ6 [2]) [nM]
2.9	2.5	0.16	4.1 and ~ 4	4.1	OC[C@H]1OC(O)[C@H]([18F])[C@@H](O)[C@@H]1O (stereo partly shown) [[^18F]FDG, reference compound]	–	–
–	–	–	–	–	CC[C@H](C)[C@@H]1NC(=O)[C@@H](NC(=O)CN)CSSC[C@@H]2NC(=O)[C@H](C)NC(=O)CNC(=O)[C@@H]3CCCN3C(=O)[C@@H]3CSSC[C@@H](C(=O)NCC(N)=O)NC(=O)[C@H](Cc4ccc(O)cc4)NC(=O)CNC(=O)[C@H](CC(N)=O)NC(=O)CNC(=O)[C@H](CCCNC(=N)N)NC(=O)[C@H](CSSC[C@H](NC(=O)[C@H](CCCNC(=N)N)NC(=O)[C@H](Cc4ccccc4)NC(=O)[C@H](CC(C)C)NC(=O)[C@H](CC(C)C)NC(=O)[C@H]([C@@H](C)O)NC(=O)CNC(=O)[C@H](CC(C)C)NC(=O)[C@H](CC(=O)O)NC(=O)[C@H]([C@@H](C)O)NC(=O)[C@H](CCCNC(=N)N)NC(=O)[C@H](CCSC)NC(=O)[C@H](CC(N)=O)NC(=O)[C@H](CC(C)C)NC1=O)C(=O)N[C@@H](CCCNC(=N)N)C(=O)N[C@@H](CCCNC(=N)N)C(=O)N[C@@H](CC(=O)O)C(=O)N[C@@H](CO)C(=O)N[C@@H](CC(=O)O)C(=O)N3)NC(=O)[C@H]([C@@H](C)CC)NC2=O [R01]	~1	~3
